Results as given in patent US20160243136A1, “PHARMACEUTICAL FORMULATIONS CONTAINING MITOCHONDRIALLY TARGETED ANTIOXIDANTS” (Mitotech SA, priority 2013, published 2016).

Legend:
[1] = system: Wistar rats with experimental hepatitis; experiment: D-galactosamin-induced experimental hepatitis; type: in vivo, rat; conditions: 7 d before induction, control median 2
Protocol: Experimental hepatitis was induced in 8-10 weeks old Wistar rats weighing […] by intraperitoneal injection of 500 mg/kg D-galactosamin in 0.9% NaCl. SkQ1 was administered by gavage in aqueous solution at doses of 10 nmol/kg/day, 50 nmol/kg/day, 250 nmol/kg/day, and 1250 nmol/kg/day starting 7 d before induction of hepatitis and ending at the day of induction. The animals were sacrificed 24 hrs after the induction of hepatitis. Inflammation score was estimated for each animal on a 3-point scale by blind examination of hematoxylin-eosin stained liver sections.

Human neutrophils = experiment: f-MLP-stimulated neutrophil MMP-9 release by zymography; type: cell-based; conditions: 0.2 nM, 2 nM, and 200 nM; 1.5 hr pre-incubation; 1 nM f-MLP 30 min; vs vehicle control
Protocol: Human neutrophils were isolated from anticoagulated blood of healthy donors. Neutrophils were pre-incubated with 0.2 nM, 2 nM, 20 nM, 200 nM, and 500 nM SkQ1 solution in RPMI-1640 medium supplemented with 10% fetal serum for 1.5 hr at 37° C. in 5% CO2. The cells were then stimulated with 1 nM N-formyl-methionine-leucine-phenylalanine (f-MLP) for 30 min. The supernatants from the cells were used to detect MMP-9 activity by zymography analysis (MMP-9 release was used to estimate tissue damage). The data from this assay was shown as means at least for 3 separate experiments.

[2] = system: renal tubular cells (RTC); experiment: In vitro inflammation model: renal tubular cells co-cultivated with bacterial lysate-activated leukocytes; type: cell-based, rat
Protocol: Kidneys from 1-3 day old rats were excised under aseptic conditions. The tissue was blended and dissociated by collagenase treatment (0.5%, 30 min at 37° C.). The final suspension was centrifuged for 5 min at 50 g. The pellet was resuspended in about 10 ml of DMEM/F12 (Gibco, USA) supplemented with 10% FCS (Gibco, USA) and kept for 2 min, after which the supernatant was transferred to another tube and the pellet was repeatedly resuspended. After 10 min, the renal tubules were pelleted and dissociated cells remaining in the suspension were discarded. The pellet was resuspended in DMEM/F12 with 10% FCS and seeded onto 24-well plates or onto coverslips placed in 35-mm glass-bottom Petri dishes.
E. coli strain No. 85 was cultured overnight in a cultivation medium containing 1% tryptone, 0.5% yeast extract and 1% NaCl (Sigma-Aldrich, USA). The medium, containing roughly 10^9 colony-forming units (CFU) per ml, was pelleted at 300 g for 3 min. The bacterial lysate was prepared by diluting 30 ml of an overnight (ON) culture and diluting the precipitate in 3 ml of 0.9% NaCl followed by autoclaving for 1.5 hr at 120° C.
5 ml heparinized blood collected from the jugular vein of adult male rats was carefully layered over 5 ml of Ficoll-Urografin (density of 1.077 g/cm^3), and centrifuged for 30 min at 200 g. This procedure results in erythrocyte pelleting, while the mononuclear fraction of leukocytes forms an interphase ring on the Ficoll surface, which was carefully collected. Leukocytes were transferred into another tube and centrifuged for 3 min at 200 g. The resultant pellet was resuspended in 5 ml of DMEM/F12. After cell counting in a hemocytometer, the cells were diluted to a final concentration of about 1×10^5 cells per ml.
In a two-day old renal cell culture, the medium was substituted with DMEM/F12 (400 μl per well, 1600 μl per dish), supplemented with (depending on the purpose): GSK-3β inhibitor LiCl (9 mM) (Sigma-Aldrich, USA), water-soluble antioxidant Trolox (50 μM, 100 μM) (Sigma-Aldrich, USA), MTAs 10-(6-plastoquinonyl)decyl-triphenylphosphonium (SkQ1), synthesized according to Antonenko et al. (2008) Biochemistry (Mosc) 73:1273-87), 10 nM, 100 nM), and 10-(6′-plastoquinonyl) decylrhodamine 19 SkQR1), synthesized according to Antonenko (2008), (1 nM, 10 nM, or 100 nM). Renal cells were incubated for 2 hr in this medium, followed by supplementation with leukocytes or neutrophils in DMEM/F12, or DMEM/F12, alone, in the control sample (400 μl per well, 1600 μl per dish). Simultaneously, the bacterial lysate or lipopolysaccharide (100 ng/ml, LPS, Sigma-Aldrich, USA) solution in DMEM/F12 and DMEM/F12 alone in the control sample (100 μl per well, 400 μl per dish) were added. Renal cells, leukocytes (neutrophils) were co-cultivated for 24 or 48 hr with bacterial lysate or LPS. Cell death (both necrotic and apoptotic) rate was evaluated using Annexin-V FITC Kit (Invitrogen, USA).
The ROS-sensitive fluorescent probe 2,7-DCF-DA (Molecular Probes, USA) dissolved in DMEM/F12 without bicarbonate (final concentration 10 μM) was added to renal cells (500 μl per well of 24-well plate, 2 ml per dish) and incubated for 15 min at 37° C. followed by a wash with DMEM/F12 without bicarbonate. MDA was determined as in (Mihara and Uchiyama (1978) Anal. Biochem. 86:271-8). Fluorescent probe, DAF-2-DA (Calbiochem, San Diego, Calif., USA) was used for NO determination in living cells. The procedure was the same as for 2,7-DCF-DA. The nitrite/nitrate concentration (as products of NO oxidation) in culture media was determined using Nitrite/Nitrate Assay Kit (Sigma-Aldrich, USA). TNFα was determined using the kit Rat TNFα ELISA Ready-SET-Go (Ebioscience, USA).
Renal cells were imaged with an LSM510 inverted confocal microscope (Carl Zeiss Inc., Jena, Germany) with excitation at 488 nm and emission collected at 500 nm-530 nm with a pinhole diameter of 150 μm. Images were processed using ImageJ software (NIH, Bethesda, Md., USA).

Question: Which results are given for `CC1=C(C)C(=O)C(CCCCCCCCCC[P+](c2ccccc2)(c2ccccc2)c2ccccc2)=CC1=O` [SkQ1, 10-(6-plastoquinonyl)decyl-triphenylphosphonium]?
Answer: inflammation score (3-point scale, liver sections) ([1]; 50 nmol/kg/day by gavage, p<0.01): 1.5; inflammation score (median, 3-point scale, liver sections) ([1]; 1250 nmol/kg/day by gavage, p<0.001): 1; neutrophil-MMP-9 activation induced by f-MLP (Human neutrophils): prevented; ROS production in renal cells (DCF fluorescence) ([2]; 10 nM, pretreatment 2 hr, co-cultivation with activated leukocytes): suppression of ROS production after co-cultivation with activated leukocytes to levels close to those observed on controls; renal cell death (Annexin V-positive) ([2]; 48 hr exposure to activated leukocytes, pre-incubation with drug): more pronounced than that afforded by the traditional water-soluble antioxidant, Trolox
